Experimental data published in PubChem BioAssay (NCI).
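Step 1: Grow cells in 96-well plates. Step 2: Expose to compound for 48 hours at 5 concentrations. Step 3: Interpolate endpoints linearly; if unreached, use highest concentration. TGI: concentration producing complete growth inhibition.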

Key:
Assay in all cases: growth of human tumour cells (NCI), 48 h
[1] = test system: KM12 colon
[2] = test system: U251 CNS
[3] = test system: HL-60(TB) leukemia
[4] = test system: SK-OV-3 ovarian
[5] = test system: MALME-3M melanoma
[6] = test system: SK-MEL-28 melanoma
[7] = test system: K-562 leukemia
[8] = test system: A498 renal
[9] = test system: LOX IMVI melanoma
[10] = test system: MCF7 breast
[11] = test system: NCI-H226 lung
[12] = test system: UACC-62 melanoma
[13] = test system: MDA-MB-231 breast
[14] = test system: MOLT-4 leukemia
[15] = test system: SF-295 CNS
[16] = test system: EKVX NSCLC
[17] = test system: NCI/ADR-RES ovarian
[18] = test system: SNB-75 CNS
[19] = test system: M14 melanoma
[20] = test system: IGROV1 ovarian
[21] = test system: RPMI-8226 leukemia
[22] = test system: CCRF-CEM leukemia
[23] = test system: COLO 205 colon
[24] = test system: NCI-H23 lung
[25] = test system: HCT-116 colon
[26] = test system: NCI-H522 lung
[27] = test system: SK-MEL-2 melanoma
[28] = test system: UO-31 renal
[29] = test system: A549 NSCLC
[30] = test system: PC-3 prostate
[31] = test system: SK-MEL-5 melanoma
[32] = test system: SF-539 CNS
[33] = test system: TK-10 renal
[34] = test system: RXF 393 renal
[35] = test system: OVCAR-4 ovarian
[36] = test system: HS 578T breast
[37] = test system: 786-0 renal
[38] = test system: CAKI-1 renal
[39] = test system: UACC-257 melanoma
[40] = test system: SNB-19 CNS
[41] = test system: SW-620 colon
[42] = test system: T-47D breast
[43] = test system: MDA-N
[44] = test system: HOP-92 NSCLC
[45] = test system: ACHN renal
[46] = test system: HCT-15 colon
[47] = test system: SN12C renal
[48] = test system: SF-268 CNS
[49] = test system: NCI-H460 lung
[50] = test system: HOP-62 NSCLC
[51] = test system: SR leukemia
[52] = test system: HCC-2998 colon
[53] = test system: HT29 colon
[54] = test system: DU-145 prostate
[55] = test system: BT-549 breast
[56] = test system: OVCAR-8 ovarian
[57] = test system: OVCAR-5 ovarian
[58] = test system: OVCAR-3 ovarian
[59] = test system: MDA-MB-435

S=C1N=C2C(=N1)n1c3c(c4ccccc41)CCCC23 (stereo not drawn)
TGI [1]: > 100 µM
TGI [2]: > 100 µM
TGI [3]: > 100 µM
TGI [4]: > 100 µM
TGI [5]: > 100 µM
TGI [6]: > 100 µM
TGI [7]: > 100 µM
TGI [8]: > 100 µM
TGI [9]: 35.6 µM
TGI [10]: 63.1 µM
TGI [11]: > 100 µM
TGI [12]: > 100 µM
TGI [13]: > 100 µM
TGI [14]: > 100 µM
TGI [15]: > 100 µM
TGI [16]: > 100 µM
TGI [17]: > 100 µM
TGI [18]: > 100 µM
TGI [19]: > 100 µM
TGI [20]: > 100 µM
TGI [21]: 97.5 µM
TGI [22]: > 100 µM
TGI [23]: > 100 µM
TGI [24]: > 100 µM
TGI [25]: > 100 µM
TGI [26]: 63.3 µM
TGI [27]: > 100 µM
TGI [28]: > 100 µM
TGI [29]: > 100 µM
TGI [30]: > 100 µM
TGI [31]: > 100 µM
TGI [32]: > 100 µM
TGI [33]: > 100 µM
TGI [34]: > 100 µM
TGI [35]: > 100 µM
TGI [36]: > 100 µM
TGI [37]: 32.9 µM
TGI [38]: > 100 µM
TGI [39]: > 100 µM
TGI [40]: > 100 µM
TGI [41]: > 100 µM
TGI [42]: > 100 µM
TGI [43]: > 100 µM
TGI [44]: > 100 µM
TGI [45]: > 100 µM
TGI [46]: > 100 µM
TGI [47]: 72.6 µM
TGI [48]: > 100 µM
TGI [49]: > 100 µM
TGI [50]: > 100 µM
TGI [51]: > 100 µM
TGI [52]: > 100 µM
TGI [53]: > 100 µM
TGI [54]: > 100 µM
TGI [55]: > 100 µM
TGI [56]: > 100 µM
TGI [57]: > 100 µM
TGI [58]: > 100 µM
TGI [59]: > 100 µM

CC(C)CSCC1OC(n2cnc3c(N)nccc32)C(O)C1O (stereo not drawn)
TGI [1]: > 100 µM
TGI [2]: > 100 µM
TGI [3]: > 100 µM
TGI [4]: > 100 µM
TGI [5]: > 100 µM
TGI [6]: > 100 µM
TGI [7]: > 100 µM
TGI [8]: > 100 µM
TGI [9]: > 100 µM
TGI [10]: > 100 µM
TGI [11]: > 100 µM
TGI [12]: > 100 µM
TGI [13]: > 100 µM
TGI [14]: > 100 µM
TGI [15]: > 100 µM
TGI [16]: > 100 µM
TGI [17]: > 100 µM
TGI [18]: > 100 µM
TGI [19]: > 100 µM
TGI [20]: > 100 µM
TGI [21]: > 100 µM
TGI [22]: > 100 µM
TGI [23]: > 100 µM
TGI [24]: > 100 µM
TGI [25]: > 100 µM
TGI [26]: > 100 µM
TGI [27]: > 100 µM
TGI [28]: > 100 µM
TGI [29]: > 100 µM
TGI [30]: > 100 µM
TGI [31]: > 100 µM
TGI [32]: > 100 µM
TGI [33]: > 100 µM
TGI [34]: > 100 µM
TGI [35]: > 100 µM
TGI [36]: > 100 µM
TGI [37]: > 100 µM
TGI [38]: > 100 µM
TGI [39]: > 100 µM
TGI [40]: > 100 µM
TGI [41]: > 100 µM
TGI [42]: > 100 µM
TGI [43]: > 100 µM
TGI [44]: > 100 µM
TGI [45]: > 100 µM
TGI [46]: > 100 µM
TGI [47]: > 100 µM
TGI [48]: > 100 µM
TGI [49]: > 100 µM
TGI [50]: > 100 µM
TGI [51]: > 100 µM
TGI [52]: > 100 µM
TGI [53]: > 100 µM
TGI [54]: > 100 µM
TGI [55]: > 100 µM
TGI [56]: > 100 µM
TGI [57]: > 100 µM
TGI [58]: > 100 µM
TGI [59]: > 100 µM
